Molecular target: T1, His-hMAGL (recombinant polyhistidine tagged human MAGL protein) (Homo sapiens, UniProt Q99685)
T1 construct: made in house; host or cells: E. coli BL21(DE3)
T1 sequence (Q99685 1-303): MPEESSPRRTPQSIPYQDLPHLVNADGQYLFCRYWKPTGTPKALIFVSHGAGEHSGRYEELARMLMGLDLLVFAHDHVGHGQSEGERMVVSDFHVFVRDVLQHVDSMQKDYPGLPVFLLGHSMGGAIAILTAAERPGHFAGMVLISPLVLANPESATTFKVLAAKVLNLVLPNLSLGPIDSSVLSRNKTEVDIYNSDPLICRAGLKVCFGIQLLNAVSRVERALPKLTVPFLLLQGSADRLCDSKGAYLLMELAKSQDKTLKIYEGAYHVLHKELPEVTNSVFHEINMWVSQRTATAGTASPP
Assay: Measurement of MAGL inhibitory activity (arachidonic acid production from 2-arachidonylglycerol, RapidFire-mass spectrometry)
Format: biochemical
Details: MAGL inhibitory rate, test compound 10 μM, 60 min preincubation, 2-arachidonylglycerol substrate
Protocol: The His-hMAGL obtained above was diluted with enzyme reaction buffer (10 mM Tris-HCl, pH 7.5, 1 mM EDTA, 0.025 (w/v) % Triton X-100, 0.01% Bovine serum albumin) to a concentration of 7.5 ng/mL. […] Thereafter, to each well was added 5 μL of 150 μM 2-arachidonylglycerol (Tocris Bioscience), and the mixture was incubated at room temperature for 10 min. Then, 10 μL of 2% formic acid (Wako Pure Chemical Industries, Ltd.) was added to stop the reaction. Furthermore, acetonitrile (50 μL) containing 3 μM arachidonic acid-d8 (Cayman Chemical Company) was added and the mixture was stirred.
The amount of arachidonic acid in the obtained enzyme reaction mixture was calculated by measuring by RapidFire-mass spectrometry and correcting by the amount of arachidonic acid-d8. High Throughput online solid phase extraction was performed using RapidFire 300™ system (Agilent Technologies, Inc.). Samples were loaded on SPE C4 cartridge (Agilent Technologies, Inc.) and desalted with 0.2 (v/v) % acetic acid (Wako Pure Chemical Industries, Ltd.) in ultrapure water/acetonitrile (70/30, v/v) at a flow rate of 1.5 mL/min, eluted at a flow rate of 0.5 mL/min with 0.2 (v/v) % acetic acid dissolved in acetonitrile/ultrapure water (90/10, v/v), and injected into the mass spectrometry part. The injection needle was washed with ultrapure water (500 millisecond) and acetonitrile (500 millisecond) to minimize carry-over. […] The RapidFire300 system was controlled by RapidFire UI software version 3.6 (Agilent Technologies, Inc.).
The mass spectrometry of the resultant product was performed using API4000™ triple quadrupole mass spectrometer (AB SCIEX) equipped with an electrospray ion sauce (TurboIon Spray™) in a negative selected reaction monitoring (SRM) mode. The conditions of SRM are shown below. The parameters of the instrument were optimized as follows: capillary temperature 600° C., ion spray voltage −4.5 kV, collision gas 8, curtain gas 15 psi, ion source gas 1 60 psi, ion source gas 2 60 psi. The mass spectrometer was controlled by Analyst™ software version 1.5.1 (AB SCIEX). The peak area integration was analyzed using RapidFire integrator software version 3.6 (Agilent Technologies, Inc.).
MAGL inhibitory rate (%) was calculated according to the following calculation formula. (1-(arachidonic acid production amount of test compound addition group−arachidonic acid production amount of enzyme-free group)÷(arachidonic acid production amount of test compound-free group−arachidonic acid production amount of enzyme-free group))×100

SMILES	inhibition at 10 µM
O=C1CCC2(CN(C(=O)c3ccc(-c4ccccc4)cc3)C2)N1 [Example 12, 2-(biphenyl-4-ylcarbonyl)-2,5-diazaspiro[3.4]octan-6-one]	92%
Cc1c(C(=O)N2CC3(COC(=O)N3)C2)sc2c(F)c(OC(F)(F)F)ccc12 [Example 347, 2-((7-fluoro-3-methyl-6-(trifluoromethoxy)-1-benzothiophen-2-yl)carbonyl)-7-oxa-2,5-diazaspiro[3.4]octan-6-one]	100%
O=C1CCC2(CN(C(=O)c3sc4cc(-c5ccc(F)c(F)c5)ccc4c3Cl)C2)N1 [Example 216, 2-((3-chloro-6-(3,4-difluorophenyl)-1-benzothiophen-2-yl)carbonyl)-2,5-diazaspiro[3.4]octan-6-one]	100%
O=C1CCC2(CN(C(=O)[C@H]3C[C@H](COc4ccc(F)cc4Cl)C3)C2)N1 [Example 26, 2-((trans-3-((2-chloro-4-fluorophenoxy)methyl)cyclobutyl)carbonyl)-2,5-diazaspiro[3.4]octan-6-one]	98%
O=C1CCC2(CN(C(=O)c3cc4ccc(-c5ccc(Cl)cc5)cc4o3)C2)N1 [Example 169, 2-((6-(4-chlorophenyl)-1-benzofuran-2-yl)carbonyl)-2,5-diazaspiro[3.4]octan-6-one]	80%
O=C1CCC2(CN(C(=O)c3sc4cc(-c5ccc(Cl)cc5F)ccc4c3Cl)C2)N1 [Example 225, 2-((3-chloro-6-(4-chloro-2-fluorophenyl)-1-benzothiophen-2-yl)carbonyl)-2,5-diazaspiro[3.4]octan-6-one]	99%
O=C1CCC2(CN(C(=O)c3sc4cc(-c5ccc(F)cc5F)ccc4c3Cl)C2)N1 [Example 39, 2-((3-chloro-6-(2,4-difluorophenyl)-1-benzothiophen-2-yl)carbonyl)-2,5-diazaspiro[3.4]octan-6-one]	101%
Cc1cc(F)ccc1-c1ccc2c(Cl)c(C(=O)N3CC4(CCC(=O)N4)C3)sc2c1 [Example 209, 2-((3-chloro-6-(4-fluoro-2-methylphenyl)-1-benzothiophen-2-yl)carbonyl)-2,5-diazaspiro[3.4]octan-6-one]	99%
O=C1CCC2(CN(C(=O)c3ccc(-c4cccc(C(F)(F)F)c4Cl)cc3)C2)N1 [Example 51, 2-((2′-chloro-3′-(trifluoromethyl)biphenyl-4-yl)carbonyl)-2,5-diazaspiro[3.4]octan-6-one]	99%
COc1ccc(F)c(-c2ccc(C(=O)N3CC4(CCC(=O)N4)C3)cc2)c1F [Example 78, 2-((2′,6′-difluoro-3′-methoxybiphenyl-4-yl)carbonyl)-2,5-diazaspiro[3.4]octan-6-one]	85%
O=C1CCC2(CN(C(=O)c3sc(-c4ccc(C5(C(F)(F)F)CC5)cc4)cc3Cl)C2)N1 [Example 247, 2-((3-chloro-5-(4-(1-(trifluoromethyl)cyclopropyl)phenyl)-2-thienyl)carbonyl)-2,5-diazaspiro[3.4]octan-6-one]	100%
Cc1ccccc1-c1ccc2c(Cl)c(C(=O)N3CC4(CCC(=O)N4)C3)sc2c1 [Example 185, 2-((3-chloro-6-(2-methylphenyl)-1-benzothiophen-2-yl)carbonyl)-2,5-diazaspiro[3.4]octan-6-one]	99%
O=C1CCC2(CN(C(=O)c3ccc(-c4ccc5sncc5c4)cc3)C2)N1 [Example 72, 2-(4-(1,2-benzothiazol-5-yl)benzoyl)-2,5-diazaspiro[3.4]octan-6-one]	97%
O=C1CCC2(CN(C(=O)N3CCC(Cc4ccc(Cl)cc4C(F)(F)F)CC3)C2)N1 [Example 105, 2-((4-(4-chloro-2-(trifluoromethyl)benzyl)piperidin-1-yl)carbonyl)-2,5-diazaspiro[3.4]octan-6-one]	102%
O=C1CCC2(CN(C(=O)[C@H]3C[C@@H](COc4ccc(F)cc4Cl)C3)C2)N1 [Example 25, 2-((cis-3-((2-chloro-4-fluorophenoxy)methyl)cyclobutyl)carbonyl)-2,5-diazaspiro[3.4]octan-6-one]	91%
Cc1cc(F)ccc1-c1ccc(OCC2CN(C(=O)N3CC4(CCC(=O)N4)C3)C2)c(F)c1 [Example 23, 2-((3-(((3,4′-difluoro-2′-methylbiphenyl-4-yl)oxy)methyl)azetidin-1-yl)carbonyl)-2,5-diazaspiro[3.4]octan-6-one]	102%
Cc1c(C(F)(F)F)ccc2c(Cl)c(C(=O)N3CCC4(COC(=O)N4)C3)sc12 (centres unmarked) [Example 337, 7-((3-chloro-7-methyl-6-(trifluoromethyl)-1-benzothiophen-2-yl)carbonyl)-3-oxa-1,7-diazaspiro[4.4]nonan-2-one]	100%
O=C1CCC2(CN(C(=O)N3CC(COc4ccc(C(F)(F)F)cc4Cl)C3)C2)N1 [Example 17, 2-((3-((2-chloro-4-(trifluoromethyl)phenoxy)methyl)azetidin-1-yl)carbonyl)-2,5-diazaspiro[3.4]octan-6-one]	98%
O=C1NC2(CO1)CN(C(=O)c1sc3c(C(F)F)c(OC(F)(F)F)ccc3c1Cl)C2 [Example 302, 2-((3-chloro-7-(difluoromethyl)-6-(trifluoromethoxy)-1-benzothiophen-2-yl)carbonyl)-7-oxa-2,5-diazaspiro[3.4]octan-6-one]	101%
O=C1NC2(CO1)CN(C(=O)[C@H]1C[C@H](OCc3ccc(Cl)cc3Cl)C1)C2 [Example 348, 2-((trans-3-((2,4-dichlorobenzyl)oxy)cyclobutyl)carbonyl)-7-oxa-2,5-diazaspiro[3.4]octan-6-one]	100%
O=C1CCC2(CN(C(=O)c3cc4cc(OCc5ccc(Cl)cc5Cl)ccc4s3)C2)N1 [Example 149, 2-((5-((2,4-dichlorobenzyl)oxy)-1-benzothiophen-2-yl)carbonyl)-2,5-diazaspiro[3.4]octan-6-one]	83%
O=C1CCC2(CN(C(=O)c3sc(-c4cccc(OCC(F)(F)F)c4)cc3Cl)C2)N1 [Example 178, 2-((3-chloro-5-(3-(2,2,2-trifluoroethoxy)phenyl)-2-thienyl)carbonyl)-2,5-diazaspiro[3.4]octan-6-one]	100%
Cc1cc(C(F)(F)F)ccc1-c1ccc(C(=O)N2CC3(CCC(=O)N3)C2)cc1 [Example 92, 2-((2′-methyl-4′-(trifluoromethyl)biphenyl-4-yl)carbonyl)-2,5-diazaspiro[3.4]octan-6-one]	96%
O=C1CCC2(CN(C(=O)c3ccc(-c4ccc(C5(C(F)(F)F)CC5)cc4)cc3)C2)N1 [Example 63, 2-((4′-(1-(trifluoromethyl)cyclopropyl)biphenyl-4-yl)carbonyl)-2,5-diazaspiro[3.4]octan-6-one]	99%
Cc1cccc(-c2ccc(C(=O)N3CC4(CCC(=O)N4)C3)cc2)c1C [Example 89, 2-((2′,3′-dimethylbiphenyl-4-yl)carbonyl)-2,5-diazaspiro[3.4]octan-6-one]	96%
O=C1CCC2(CN(C(=O)c3ccc(-c4cccc5c4OCC5)cc3)C2)N1 [Example 94, 2-(4-(2,3-dihydro-1-benzofuran-7-yl)benzoyl)-2,5-diazaspiro[3.4]octan-6-one]	93%
Cc1sccc1-c1ccc2c(Cl)c(C(=O)N3CC4(CCC(=O)N4)C3)sc2c1 [Example 234, 2-((3-chloro-6-(2-methyl-3-thienyl)-1-benzothiophen-2-yl)carbonyl)-2,5-diazaspiro[3.4]octan-6-one]	101%
O=C1NC2(CO1)CN(C(=O)c1sc3cc(OC(F)(F)F)c(Cl)cc3c1Cl)C2 [Example 298, 2-((3,5-dichloro-6-(trifluoromethoxy)-1-benzothiophen-2-yl)carbonyl)-7-oxa-2,5-diazaspiro[3.4]octan-6-one]	100%
O=C1CCC2(CN(C(=O)c3sc4cc(Br)ccc4c3Cl)C2)N1 [Example 35, 2-((6-bromo-3-chloro-1-benzothiophen-2-yl)carbonyl)-2,5-diazaspiro[3.4]octan-6-one]	99%

Reference: patent publication US10610520B2, “Heterocyclic compound” (Takeda Pharmaceutical Company Limited, priority 2016, dated 2020)
